Measurements: patent publication US10744122B2, “Transdermal therapeutic system containing valentonin and use thereof as a medicament” (Soeur Josefa Menendez, priority 2015, dated 2020)
Where two headings read alike, the source gives them in different places.

Tests used:
[1] = Stability of melatonin in frozen human plasma during freeze-thaw cycles (HPLC-MS/MS); type: in vitro ADME; settings: human plasma samples stored at about −20° C.
Procedure: Between each cycle, the samples will be maintained under storage temperature conditions (about −20° C.) identical to those used for normal analysis of the samples.

[2] = Stability of the plasma extract in the injection solvent at about +4° C.; type: physicochemical, human; settings: for Deviation T0 + 24 h/T0: stored on an autosampler
Procedure: The plasma extracts will be analyzed repeatedly during the validation period in order to check for possible degradation of the compounds during storage in the solvent at about +4° C. The evaluation of stability is based on the back-calculated concentrations, which should be within ±15% (except for LOQ±20%), and an acceptable chromatographic peak shape.

[3] = cited from earlier work
[4] = Extrapolation to humans of the PK parameter values observed in dogs; type: in vivo; settings: human, for a body weight of 64 kg in humans, extrapolated from dogs, read-out: Vdss
Description: As the pharmacokinetic profiles, i.e., the pharmacokinetic parameter values, are identical in humans and dogs, just as in all […] animals, it is possible to extrapolate to humans the PK parameter values observed in dogs.

[5] = Stability in acidic gastric medium; type: physicochemical

SMILES: COc1ccc2[nH]cc(CCNC(C)=O)c2c1 [melatonin]
- Effect of freeze-thaw cycles on stability [1]: no effect on the stability
- Deviation T0 + 24 h/T0 ([2]; 2 pg/ml): 1.65%
- Deviation T0 + 24 h/T0 ([2]; 200 pg/ml): 3.33%
- Time sample extracts were stable in the injection solvent ([2]; injection vials stored at about +4° C., after the first injection): at least 24 hours
- Maximum plasma concentrations observed from 1 a.m. onwards, mean value ([3]; 12 older subjects): 45.6 pg/mL
- Maximum plasma concentrations observed from 1 a.m. onwards, mean value ([3]; 12 young subjects): 54.5 pg/mL

SMILES: C=C1c2[nH]c3ccc(OC)cc3c2CCN1C(C)=O [Valentonin, 2-acetyl-6-methoxy-1-methylene-3,4-dihydro-β-carboline]
- Vd ([4]; in vivo): 320 L
- Stability in acidic gastric medium [5]: completely hydrolyzed in acidic gastric medium
- Stability in acidic gastric medium ([5]; listed as VLT): completely degraded in acidic gastric medium

SMILES: COc1ccc2[nH]c3c(c2c1)CCN=C3C [6-Methoxyharmalan, 6-methoxy-1-methyl-3,4-dihydro-β-carboline]
- Vd ([4]; plasma, intravenous): 960 L
